{"source": "patent US4018914A", "about": "“Parturition inducement” (Abbott Laboratories, priority 1975, dated 1977)", "system": "pregnant rats", "format": "in vivo, rat", "settings": "for Mean Number of Pups / Day of Parturition: pregnant rats; for Day of Parturition: number of animals at day", "protocol": "The test animals received 20 μ in two equal portions, of L-pGlu-L-His-L-Trp-L-Ser-L-Tyr-D-Leu-L-Leu-L-Arg-L-Pro-NH-ethyl as a 0.04 g/l solution in 0.9% aqueous sodium chloride containing 0.1% bovine serum albumin. In all instances, the subcutaneous injections were given on day 18 of gestation.\nIn a repetition of the procedure of Example 1, the same test was carried out except that the animals were injected on day 19 of gestation.", "key": {"[1]": {"settings": "same dose s.c. on day 19 of gestation"}}, "note": "Like-named read-outs stand apart in the source and are kept apart here."}
{"smiles": "CCNC(=O)[C@@H]1CCCN1C(=O)[C@H](CCCNC(=N)N)NC(=O)[C@H](CC(C)C)NC(=O)[C@@H](CC(C)C)NC(=O)[C@H](Cc1ccc(O)cc1)NC(=O)[C@H](CO)NC(=O)[C@H](Cc1c[nH]c2ccccc12)NC(=O)[C@H](Cc1c[nH]cn1)NC(=O)[C@@H]1CCC(=O)N1", "note": "[Test compound, L-pGlu-L-His-L-Trp-L-Ser-L-Tyr-D-Leu-L-Leu-L-Arg-L-Pro-NH-ethyl]", "values": [{"measurement": "Mean Number of Pups", "setting": "20 μ in two equal portions s.c. on day 18 of gestation", "value": 8.7}, {"measurement": "Day of Parturition", "setting": "20 μ in two equal portions s.c. on day 18 of gestation, normal pregnancy 21.5 days", "value": "1 at 21; 2 at 20"}, {"measurement": "Mean Number of Pups", "setting": "[1]", "value": 9.3}, {"measurement": "Day of Parturition", "setting": "[1]", "value": 3, "unit": "at 21"}, {"measurement": "Condition of pups delivered", "setting": "rat, in vivo", "value": "healthy and indistinguishable from the control animals' pups"}, {"measurement": "Parturition result at other dose levels", "setting": "rats, half and two times the dose level of example 1, compared with Table I", "value": "essentially the same result as shown in Table I"}]}
